Results reported in patent US10602743B2, “Method of inducing drought/salt tolerance using Bacillus megaterium” (Marrone Bio Innovations, Inc., priority 2012, dated 2020).
Where a name gives a salt, the structure may show the parent alone.

Test system: Bacillus megaterium strain H491
Test: Chemical sensitivity, Biolog Phenotypic Microarray
Type: cell-based
Details: not given

Structure (SMILES)	H491 susceptible to compound
Oc1cccc2cccnc12 [8-Hydroxyquinoline]	susceptible
CN1[C@@H]2CC[C@H]1C[C@@H](OC(=O)C(CO)c1ccccc1)C2 (some centres unmarked) [Atropine]	susceptible
O=C(O)CN(CCN(CC(=O)O)CC(=O)O)CC(=O)O [EDTA]	susceptible
O=C(O)CI [Iodoacetic acid]	susceptible

Same assay, conditions: Biolog Phenotypic Microarray, 25° C.

Structure (SMILES)	H491 susceptible to compound
CC(C)NCC(O)COc1cccc2ccccc12 (racemic) [D,L-Propanolol]	susceptible
O=C(O)CCCCC1CCSS1 (racemic) [D,L-Thioctic acid]	susceptible
O.c1cnc2c(c1)ccc1cccnc12 [1,10-Phenanthroline Monohydrate]	susceptible
On1ccccc1=S [1-Hydroxypyridine-2-thione]	susceptible
c1ccc(-c2ccccn2)nc1 [2,2′-Dipyridyl]	susceptible
CC(C)c1nc2nc(N)nc(N)c2nc1C(C)C [2,4-Diamino-6,7-diisopropylpteridine]	susceptible
O=[N+]([O-])c1ccc(O)c([N+](=O)[O-])c1 [2,4-Dintrophenol]	susceptible
O=[N+]([O-])c1ncc[nH]1 [2-Nitroimidazole]	susceptible
Oc1ccccc1-c1ccccc1 [2-Phenylphenol]	susceptible
O=C(O)c1cc([N+](=O)[O-])cc([N+](=O)[O-])c1 [3,5-Dinitrobenzoic acid]	susceptible
Nc1nc[nH]n1 [3-Amino-1,2,4-triazole]	susceptible
Cc1cc(O)cc(C)c1Cl [4-Chloro-3,5-dimethyl-phenol]	susceptible
O=c1cc(O)c2ccccc2o1 [4-Hydroxycoumarin]	susceptible
Cc1ccc2c(Cl)cc(Cl)c(O)c2n1 [5,7-Dichloro-8-hydroxyquinaldine]	susceptible
Oc1c(Cl)cc(Cl)c2cccnc12 [5,7-Dichloro-8-hydroxyquinoline]	susceptible
Oc1c(I)cc(Cl)c2cccnc12 [5-Chloro-7-iodo-8-hydroxy-quinoline]	susceptible
C[C@H]1O[C@@H](n2cc(F)c(=O)[nH]c2=O)[C@H](O)[C@@H]1O [5-Fluoro-5′-deoxyuridine]	susceptible
O=C(O)c1[nH]c(=O)[nH]c(=O)c1F [5-Fluoroorotic acid]	susceptible
O=c1[nH]cc(F)c(=O)[nH]1 [5-Fluorouracil]	susceptible
NC(=O)NN=Cc1ccc([N+](=O)[O-])o1 [5-Nitro-2-furaldehyde semicarbazone]	susceptible
O.Sc1ncnc2nc[nH]c12 [6-Mercaptopurine monohydrate]	susceptible
CCCCC(CC)CNC(=N)NC(=N)NCCCCCCNC(=N)NC(=N)NCC(CC)CCCC (centres unmarked) [Alexidine]	susceptible
CN(C)CCC=C1c2ccccc2CCc2ccccc21 [Amitriptyline]	susceptible
CC1(C)S[C@@H]2[C@H](NC(=O)[C@H](N)c3ccc(O)cc3)C(=O)N2[C@H]1C(=O)O [Amoxicillin]	susceptible
[Cl][Sb]([Cl])[Cl] [Antimony (III) chloride]	susceptible

Structure (SMILES)	H491 susceptible to compound
CN[C@@H]1[C@@H](O[C@H]2O[C@H](CO)[C@@H](N)[C@H](O)[C@H]2O)OC2C[C@@H](N)[C@@H](O[C@H]3[C@H](O)[C@@H](O)[C@H](N)C[C@@H]3N)OC2[C@@H]1O (some centres unmarked) [Apramycin]	susceptible
CC1(C)S[C@@H]2[C@H](NC(=O)[C@H](NC(=O)N3CCNC3=O)c3ccccc3)C(=O)N2[C@H]1C(=O)O [Azlocillin]	susceptible
CC(C)(C)CC(C)(C)c1ccc(OCCOCC[N+](C)(C)Cc2ccccc2)cc1 [Benzethonium Chloride]	susceptible
OB(O)O [Boric acid]	susceptible
[Cl][Cd][Cl] [Cadmium chloride]	susceptible
Cn1c(=O)c2c(ncn2C)n(C)c1=O [Caffeine]	susceptible
O=C1C2CC=CCC2C(=O)N1SC(Cl)(Cl)Cl (centres unmarked) [Captan]	susceptible
CC1(C)S[C@@H]2[C@H](NC(=O)C(C(=O)O)c3ccccc3)C(=O)N2[C@H]1C(=O)O (some centres unmarked) [Carbenicillin]	susceptible
N#CC(C#N)=NNc1cccc(Cl)c1 [Carbonyl-cyanide m-chlorophenylhydrazone]	susceptible
Cc1nnc(SCC2=C(C(=O)O)N3C(=O)[C@@H](NC(=O)Cn4cnnn4)[C@H]3SC2)s1 [Cefazolin]	susceptible
CO[C@@]1(NC(=O)Cc2cccs2)C(=O)N2C(C(=O)O)=C(COC(N)=O)CS[C@@H]21 [Cefoxitin]	susceptible
NC(=O)c1cc[n+](CC2=C(C(=O)O)N3C(=O)[C@@H](NC(=O)[C@@H](c4ccccc4)S(=O)(=O)[O-])[C@H]3SC2)cc1 [Cefsulodin]	susceptible
CC(=O)OCC1=C(C(=O)O)N2C(=O)[C@@H](NC(=O)Cc3cccs3)[C@H]2SC1 [Cephalothin]	susceptible
[Cl-].[Cs+] [Cesium chloride]	susceptible
O=C(O)CCCc1ccc(N(CCCl)CCCl)cc1 [Chlorambucil]	susceptible
CC(=O)O.CC(=O)O.NC(=N\CCCCCC/N=C(N)/N=C(\N)Nc1ccc(Cl)cc1)/N=C(\N)Nc1ccc(Cl)cc1 [Chlorhexidine diacetate]	susceptible
CN(C)CCCN1c2ccccc2Sc2ccc(Cl)cc21 [Chlorpromazine]	susceptible
CCn1nc(C(=O)O)c(=O)c2cc3c(cc21)OCO3 [Cinoxacin]	susceptible
Cc1onc(-c2ccccc2Cl)c1C(=O)N[C@@H]1C(=O)N2[C@@H]1SC(C)(C)[C@@H]2C(=O)O [Cloxacillin]	susceptible
[Cl-].[Cl-].[Co+2] [Cobalt (II) chloride]	susceptible
CN(C)c1ccc(C(=C2C=CC(=[N+](C)C)C=C2)c2ccc(N(C)C)cc2)cc1 [Crystal violet]	susceptible
N[C@@H]1CONC1=O [D-Cycloserine]	susceptible
N[C@H](CO)C(=O)O [D-Serine]	susceptible
CN(C)[C@@H]1C(O)=C(C(N)=O)C(=O)[C@@]2(O)C(O)=C3C(=O)c4c(O)ccc(Cl)c4[C@@H](O)[C@H]3C[C@@H]12 [Demeclocycline]	susceptible
CN(C)C(=O)/N=N/C(=O)N(C)C [Diamide]	susceptible

Structure (SMILES)	H491 susceptible to compound
CN(C)S(=O)(=O)N(SC(F)(Cl)Cl)c1ccccc1 [Dichlofluanid]	susceptible
CCCCCCCCCCCC[N+](C)(C)C.[Br-] [Dodecyltrimethyl ammonium bromide]	susceptible
CCCCCCCCCCCC[N+](C)(C)CCOc1ccccc1 [Domiphen bromide]	susceptible
CCn1cc(C(=O)O)c(=O)c2cc(F)c(N3CCNCC3)nc21 [Enoxacin]	susceptible
O=C(O)CN(CCOCCOCCN(CC(=O)O)CC(=O)O)CC(=O)O [Ethylene Glycol-bis(b-Aminoethyl ether)-N,N,N′,N′-Tetraacetic Acid]	susceptible
N#CC(C#N)=NNc1ccc(OC(F)(F)F)cc1 [FCCP]	susceptible
O=C1OC(CN2CCOCC2)CN1/N=C/c1ccc([N+](=O)[O-])o1 (centres unmarked) [Furaltadone]	susceptible
CC(=O)O[C@H]1C[C@@]2(C)[C@@H](C[C@@H](O)[C@H]3[C@@]4(C)CC[C@@H](O)[C@@H](C)[C@@H]4CC[C@@]32C)/C1=C(\CCC=C(C)C)C(=O)O [Fusidic acid, sodium salt]	susceptible
O=C(O)c1cc(O)c(O)c(O)c1 [Gallic acid]	susceptible
NCC(=O)NO [Glycine hydroxamate]	susceptible
N=C(N)N [Guanidine hydrochloride]	susceptible
Oc1c(Cl)cc(Cl)c(Cl)c1Cc1c(O)c(Cl)cc(Cl)c1Cl [Hexachlorophene]	susceptible
N.N.N.N.N.N.[Cl-].[Cl-].[Cl-].[Co+3] [Hexamine cobalt (III) chloride]	susceptible
NC(=O)NO [Hydroxyurea]	susceptible
CO[C@@H]1[C@@H](O[C@@H]2O[C@H](C)[C@@H](O[C@H]3C[C@@](C)(O)[C@@H](OC(=O)CC(C)C)[C@H](C)O3)[C@H](N(C)C)[C@H]2O)[C@@H](CC=O)C[C@@H](C)[C@@H](O)/C=C/C=C/C[C@@H](C)OC(=O)C[C@H]1OC(C)=O [Josamycin]	susceptible
CC(C(=O)O)c1cccc(C(=O)c2ccccc2)c1 (centres unmarked) [Ketoprofen]	susceptible
N[C@@H](CC(=O)NO)C(=O)O [L-Aspartic-b-hydroxamate]	susceptible
CCCCCCCCCCCC[N+](C)(C)CCCS(=O)(=O)[O-] [Lauryl sulfobetaine, N-Dodecyl-N,N-dimethyl-3-ammonio-1-propanesulfonate]	susceptible
CCN(CC)CC(=O)Nc1c(C)cccc1C [Lidocaine]	susceptible
CCC[C@@H]1C[C@@H](C(=O)N[C@@H]([C@H]2O[C@H](SC)[C@H](O)[C@@H](O)[C@H]2O)[C@@H](C)O)N(C)C1 [Lincomycin]	susceptible
[Cl-].[Li+] [Lithium chloride]	susceptible
CC1(S(=O)(=O)[O-])CC(=O)c2ccccc2C1=O.[Na+] (centres unmarked) [Menadione, sodium bisulfite]	susceptible
C[n+]1ccc(-c2cc[n+](C)cc2)cc1 [Methyl viologen]	susceptible
